The structures appear in SMILES notation. Where only a bound is given, the exact number is not on record here.

The target in this test is T1, human MER (Homo sapiens, UniProt Q12866).
T1 construct: purchased Invitrogen
T1 sequence (Q12866 21-999): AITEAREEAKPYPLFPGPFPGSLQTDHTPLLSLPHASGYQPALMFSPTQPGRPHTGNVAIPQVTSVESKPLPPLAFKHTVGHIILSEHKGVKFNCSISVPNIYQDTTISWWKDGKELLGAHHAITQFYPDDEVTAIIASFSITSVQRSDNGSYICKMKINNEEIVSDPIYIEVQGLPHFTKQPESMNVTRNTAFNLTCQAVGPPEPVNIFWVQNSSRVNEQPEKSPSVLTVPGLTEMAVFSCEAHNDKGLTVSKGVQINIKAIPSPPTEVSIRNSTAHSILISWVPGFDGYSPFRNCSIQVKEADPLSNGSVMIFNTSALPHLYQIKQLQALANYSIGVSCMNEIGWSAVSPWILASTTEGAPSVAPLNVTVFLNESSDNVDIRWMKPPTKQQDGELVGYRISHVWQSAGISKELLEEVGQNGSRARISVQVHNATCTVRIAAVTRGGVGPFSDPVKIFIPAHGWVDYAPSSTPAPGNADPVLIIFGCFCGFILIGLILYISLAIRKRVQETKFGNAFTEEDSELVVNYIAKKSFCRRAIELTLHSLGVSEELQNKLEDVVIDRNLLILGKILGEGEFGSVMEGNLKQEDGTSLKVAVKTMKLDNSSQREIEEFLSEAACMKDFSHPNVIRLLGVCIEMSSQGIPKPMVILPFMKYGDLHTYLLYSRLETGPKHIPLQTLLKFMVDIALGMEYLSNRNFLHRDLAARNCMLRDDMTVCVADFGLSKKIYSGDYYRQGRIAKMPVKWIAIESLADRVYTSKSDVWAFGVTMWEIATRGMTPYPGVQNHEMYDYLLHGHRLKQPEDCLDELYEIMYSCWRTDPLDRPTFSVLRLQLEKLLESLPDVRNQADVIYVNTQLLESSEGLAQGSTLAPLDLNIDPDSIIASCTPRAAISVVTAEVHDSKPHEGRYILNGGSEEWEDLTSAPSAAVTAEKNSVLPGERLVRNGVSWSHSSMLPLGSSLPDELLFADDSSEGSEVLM
The test is described as follows: HTRF KinEASE-TK biochemical potency assay, MER. The note with it: 1 nM MER, 700 μM ATP, 800 nM TK Substrate-biotin. On the procedure:
Purified recombinant human AXL, TYRO3 and MER proteins were purchased from Invitrogen™. 10 nM AXL, 2 nM TYRO3 or MER were incubated with varying concentrations of compounds in 50 mM HEPES, pH 7.4, 10 mM MgCl2, 0.01% BSA, 1 mM DTT and 2% DMSO in a total volume of 20 μl in a 384-well microplate (Corning™ #3640) at RT for 1 h. The AXL, TYRO3 and MER enzymatic reaction was initiated by transferring 10 μl of enzyme and compound mixture into 10 μl of 1.6 μM TK Substrate-biotin (HTRF® KinEASE-TK kit, Cisbio) and 1400 μM ATP pre-incubated in 50 mM HEPES, pH 7.4, 10 mM MgCl2, 0.01% BSA, 1 mM DTT in a 384-well microplate (Corning™ #3640) at RT, giving the final reaction conditions: 5 nM AXL, 1 nM TYRO3 or MER, 800 nM TK Substrate-biotin and 700 μM ATP in 50 mM HEPES, pH 7.4, 10 mM MgCl2, 0.01% BSA, 1 mM DTT and 1% DMSO with varying concentrations of compounds. Following 2 h incubation at RT, the AXL, TYRO3 and MER enzymatic reaction was stopped by transfer of 10 μl of reaction into 10 μl of detection mix (400 nM Streptavidin-XL665, 200-fold dilution TK Antibody-Cryptate and detection buffer, HTRF® KinEASE-TK kit, Cisbio) in a white 384-well microplate (Perkin Elmer, OptiPlate 384). After 1 h incubation at RT, the plate was put into a plate reader (Evision) to read at 665/620 nm (acceptor/donor) for HTRF. The value of the DMSO blank (MIN inhibition=100% activity) was used as a negative control. The positive control was established by adding 5 μl of enzyme and DMSO mixture into 10 μl of detection mix followed by addition of 5 μl of TK Substrate-biotin and ATP mixture (MAX inhibition=0% activity). To calculate the percent activity, Equation 1 was used. Ratio 665/620 is the value at a given compound concentration: […]
With `C[C@@H]1CCCN1C1CCc2ccc(-c3cnc4[nH]nc(-c5ccc(S(=O)(=O)C6CC6)cc5)c4c3)cc2CC1` (stereo partly drawn) [Example 39, 3-(4-(Cyclopropylsulfonyl)phenyl)-5-(7-((R)-2-methylpyrrolidin-1-yl)-6,7,8,9-tetrahydro-5H-benzo[7]annulen-2-yl)-1H-pyrazolo[3,4-b]pyridine], the IC50 fell in the range of 0.1 to 1 µM.

As for `C[C@@H]1CCCN1C1(C)CCc2ccc(-c3cnc4[nH]nc(-c5ccc(N6CCOCC6)cc5)c4c3)cc2CC1` (stereo partly drawn) [Example 107, 4-[4-(5-{7-Methyl-7-[(2R)-2-methylpyrrolidin-1-yl]-6,7,8,9-tetrahydro-5H-benzo[7]annulen-2-yl}-1H-pyrazolo[3,4-b]pyridin-3-yl)phenyl]morpholine], the IC50 is above 1 µM.

`CCC1(N2CCC[C@H]2C)CCc2ccc(-c3cnc4[nH]nc(-c5ccc(S(=O)(=O)C6CC6)cc5)c4c3)cc2CC1` (stereo partly drawn) [Example 6, (2R)-1-(2-{3-[4-(Cyclopropanesulfonyl)phenyl]-1H-pyrazolo[3,4-b]pyridin-5-yl}-7-ethyl-6,7,8,9-tetrahydro-5H-benzo[7]annulen-7-yl)-2-methylpyrrolidine] returned an IC50 above 1 µM.

`CC1(N2CCc3ccc(-c4cnc5[nH]nc(-c6ccc(S(=O)(=O)C7CC7)cc6)c5c4)cc3CC2)CCCC1` [Example 120, 7-{3-[4-(Cyclopropanesulfonyl)phenyl]-1H-pyrazolo[3,4-b]pyridin-5-yl}-3-(1-methylcyclopentyl)-2,3,4,5-tetrahydro-1H-3-benzazepine] gave an IC50 above 1 µM.

In turn, `C[C@@H]1CCCN1C1(C)CCc2ccc(-c3cnc4[nH]nc(-c5ccc(S(=O)(=O)N6CCC6)cc5)c4c3)cc2CC1` (stereo partly drawn) [Example 104, (2R)-1-(2-{3-[4-(Azetidine-1-sulfonyl)phenyl]-1H-pyrazolo[3,4-b]pyridin-5-yl}-7-methyl-6,7,8,9-tetrahydro-5H-benzo[7]annulen-7-yl)-2-methylpyrrolidine] showed an IC50 of 0.1 to 1 µM.

`CC1(N2CCC2)CCc2ccc(-c3cnc4[nH]nc(-c5ccc(S(=O)(=O)C6CC6)cc5)c4c3)cc2CC1` (stereo not shown) [Example 7, 1-(2-{3-[4-(Cyclopropanesulfonyl)phenyl]-1H-pyrazolo[3,4-b]pyridin-5-yl}-7-methyl-6,7,8,9-tetrahydro-5H-benzo[7]annulen-7-yl)azetidine] displayed an IC50 of 0.1 to 1 µM.

`C[C@@H]1CCCN1C1(C)CCc2ccc(-c3cnc4[nH]nc(-c5ccc(C(C)(C)O)c(Cl)c5)c4c3)cc2CC1` (stereo partly drawn) [Example 57, 2-[2-Chloro-4-(5-{7-methyl-7-[(2R)-2-methylpyrrolidin-1-yl]-6,7,8,9-tetrahydro-5H-benzo[7]annulen-2-yl}-1H-pyrazolo[3,4-b]pyridin-3-yl)phenyl]propan-2-ol]: the IC50 lay within 0.1 to 1 µM.

As for `Cc1cc(-c2n[nH]c3ncc(-c4ccc5c(c4)CCC(N4CCCC4)CC5)cc23)ccc1C(=O)N1CCNCC1` (stereo not shown) [Example 47, 1-(2-Methyl-4-{5-[7-(pyrrolidin-1-yl)-6,7,8,9-tetrahydro-5H-benzo[7]annulen-2-yl]-1H-pyrazolo[3,4-b]pyridin-3-yl}benzoyl)piperazine], the IC50 lay in the range of 0.1 to 1 µM.

For `CC(C)(O)c1ccc(-c2n[nH]c3ncc(-c4ccc5c(c4)CCN(C4CCCC4)CC5)cc23)cc1C(F)(F)F` [Example 16, 2-{4-[5-(3-Cyclopentyl-2,3,4,5-tetrahydro-1H-3-benzazepin-7-yl)-1H-pyrazolo[3,4-b]pyridin-3-yl]-2-(trifluoromethyl)phenyl}propan-2-ol], the IC50 is 0.1 to 1 µM.

Take `COCCN1CCc2ccc(-c3cnc4[nH]nc(-c5ccc(C(C)(C)O)c(Cl)c5)c4c3)cc2CC1` [Example 34, 2-(2-Chloro-4-(5-(3-(2-methoxyethyl)-2,3,4,5-tetrahydro-1H-benzo[d]azepin-7-yl)-1H-pyrazolo[3,4-b]pyridin-3-yl)phenyl)propan-2-ol]: the IC50 was above 1 µM.

With `CC(C)(O)c1ccc(-c2n[nH]c3ncc(-c4ccc5c(n4)CCC(N4CCCC4)CC5)cc23)cc1Cl` (stereo not shown) [Example 60, 2-(2-Chloro-4-{5-[7-(pyrrolidin-1-yl)-5H,6H,7H,8H,9H-cyclohepta[b]pyridin-2-yl]-1H-pyrazolo[3,4-b]pyridin-3-yl}phenyl)propan-2-ol], the IC50 lay within 0.1 to 1 µM.

`CS(=O)(=O)c1ccc(-c2n[nH]c3ncc(-c4ccc5c(c4)CCN(C4CCCC4)CC5)cc23)cc1F` [Example 32, 3-Cyclopentyl-7-(3-(3-fluoro-4-(methylsulfonyl)phenyl)-1H-pyrazolo[3,4-b]pyridin-5-yl)-2,3,4,5-tetrahydro-1H-benzo[d]azepine] came in with a concentration for half-maximal inhibition (IC50) of 0.1 to 1 µM.

In turn, `Cc1cc(-c2n[nH]c3ncc(-c4ccc5c(c4)CCN(C(=O)C(C)C)CC5)cc23)ccc1C(=O)N1CCNCC1` [Example 48, 2-Methyl-1-(7-{3-[3-methyl-4-(piperazine-1-carbonyl)phenyl]-1H-pyrazolo[3,4-b]pyridin-5-yl}-2,3,4,5-tetrahydro-1H-3-benzazepin-3-yl)propan-1-one] displayed an IC50 above 1 µM.

Take `CS(=O)(=O)c1ccc(-c2n[nH]c3ncc(-c4ccc5c(c4)CCN(C4CCCC4)CC5)cc23)cc1Cl` [Example 31, 7-(3-(3-Chloro-4-(methylsulfonyl)phenyl)-1H-pyrazolo[3,4-b]pyridin-5-yl)-3-cyclopentyl-2,3,4,5-tetrahydro-1H-benzo[d]azepine]: the IC50 lay within 0.1 to 1 µM.

Compound `COc1cc(-c2n[nH]c3ncc(-c4ccc5c(c4)CCC(C)(N4CCC[C@H]4C)CC5)cc23)ccc1OC[C@H]1COCCO1` (stereo partly drawn) [Example 114, (2R)-1-{2-[3-(4-{[(2R)-1,4-Dioxan-2-yl]methoxy}-3-methoxyphenyl)-1H-pyrazolo[3,4-b]pyridin-5-yl]-7-methyl-6,7,8,9-tetrahydro-5H-benzo[7]annulen-7-yl}-2-methylpyrrolidine] registered an IC50 above 1 µM.

`CC(C)(O)c1ccc(-c2n[nH]c3ncc(-c4cc5c(cn4)CCC(N4CCCC4)CC5)cc23)cc1Cl` (stereo not shown) [Example 59, 2-(2-Chloro-4-{5-[7-(pyrrolidin-1-yl)-5H,6H,7H,8H,9H-cyclohepta[c]pyridin-3-yl]-1H-pyrazolo[3,4-b]pyridin-3-yl}phenyl)propan-2-ol] gave an IC50 of 0.1 to 1 µM.

`C[C@H]1CCCN1C1(C)CCc2ccc(-c3cnc4[nH]nc(-c5ccc(S(=O)(=O)C6CC6)cc5)c4c3)cc2CC1` (stereo partly drawn) [Example 5, (2S)-1-(2-{3-[4-(Cyclopropanesulfonyl)phenyl]-1H-pyrazolo[3,4-b]pyridin-5-yl}-7-methyl-6,7,8,9-tetrahydro-5H-benzo[7]annulen-7-yl)-2-methylpyrrolidine] registered an IC50 of 0.1 to 1 µM.

`C[C@H]1CCCN1C1CCc2ccc(-c3cnc4[nH]nc(-c5ccc(S(C)(=O)=O)cc5)c4c3)cc2CC1` (stereo partly drawn) [Example 36, 5-(7-((S)-2-Methylpyrrolidin-1-yl)-6,7,8,9-tetrahydro-5H-benzo[7]annulen-2-yl)-3-(4-(methylsulfonyl)phenyl)-1H-pyrazolo[3,4-b]pyridine] came in with an IC50 of 0.1 to 1 µM.

On to `C[C@@H]1CCCN1C1(C)CCc2ccc(-c3cnc4[nH]nc(-c5ccc(C(N)=O)cc5)c4c3)cc2CC1` (stereo partly drawn) [Example 54, 4-(5-(7-Methyl-7-((R)-2-methylpyrrolidin-1-yl)-6,7,8,9-tetrahydro-5H-benzo[7]annulen-2-yl)-1H-pyrazolo[3,4-b]pyridin-3-yl)benzamide], for which the half-maximal inhibitory concentration (IC50) is below 0.1 µM.

The values are drawn from patent publication US20240246967A1, “AXL COMPOUNDS” (ARCUS BIOSCIENCES, INC., priority 2021, published 2024).
